We go through four molecules from US11547681B2, “N-acylethanolamide derivatives and uses thereof” (ELIEM THERAPEUTICS, INC., priority 2016, dated 2023).

One data set can be described thus: in vitro. The settings on record: for Concentration (μM) of analyte PEA, 0 min / Concentration (μM) of analyte PEA, 10 min / Concentration (μM) of analyte PEA, 20 min / Concentration (μM) of analyte PEA, 30 min / Concentration (μM) of analyte PEA, 60 min / % Remaining of Initial (n = 1), 0 min / % Remaining of Initial (n = 1), 10 min / % Remaining of Initial (n = 1), 20 min / % Remaining of Initial (n = 1), 30 min / % Remaining of Initial (n = 1), 60 min / microsomal CLint at 1 μM / half-life at 1 μM / microsomal CLint / half-life: male, CD-1, mouse; for Concentration (μM) of analyte PEA, 0 min / Concentration (μM) of analyte PEA, 10 min / Concentration (μM) of analyte PEA, 20 min / Concentration (μM) of analyte PEA, 30 min / Concentration (μM) of analyte PEA, 60 min / % Remaining of Initial (n = 1), 0 min / % Remaining of Initial (n = 1), 10 min / % Remaining of Initial (n = 1), 20 min / % Remaining of Initial (n = 1), 30 min / % Remaining of Initial (n = 1), 60 min: 1 μM; for % Remaining of Initial (n = 1), 0 min: s9, 0 h; for % Remaining of Initial (n = 1), 10 min: s9, 10 min; for % Remaining of Initial (n = 1), 20 min: s9, 20 min; for % Remaining of Initial (n = 1), 30 min: s9, 0.5 h; for % Remaining of Initial (n = 1), 60 min: s9, 1 h; for microsomal CLint at 1 μM: s9, CLint (mL/min/mg protein). How it is done: (§1) Reaction mixture, minus cofactors, was prepared as described below. Test article was added into the reaction mixture at a final concentration of 1 μM. […] An aliquot of the reaction mixture (without cofactor cocktail) was equilibrated in a shaking water bath at 37° C. for 3 minutes. The reaction was initiated by the addition of cofactor cocktail, and the mixture was incubated in a shaking water bath at 37° C. Aliquots (100 μL) were withdrawn at 0, 10, 20, 30, and 60 minutes. Test article samples were immediately combined with 300 μL of ice-cold acetonitrile containing 1% formic acid. Control samples were immediately combined with 400 μL of ice-cold 50/50 acetonitrile (ACN)/dH2O containing 0.1% formic acid and internal standard to terminate the reaction. Samples were then mixed and centrifuged to precipitate proteins. Calibration standards were prepared in matched matrix. Samples and standards were assayed by LC-MS/MS using electrospray ionization for both the dosed prodrug and the expected drug (PEA). Analytical conditions are outlined in Appendix 8-1. Test article concentration at each time point was compared to test article concentration at time 0 to determine the percent remaining at each time point. Halflives were calculated using GraphPad software, fitting to a single-phase exponential decay equation.
as §1, with “for 5” for “for 3”, “minutes. Reaction” for “minutes. The reaction”, “and” for “and the”, “both” for “both the”, “Appendix 10-1.” for “Appendix 8-1.”
Reaction mixture, minus cofactors, was prepared as described below. Test article was added into the reaction mixture at a final concentration of 1 μM. […] An aliquot of the reaction mixture (without cofactor cocktail) was equilibrated in a shaking water bath at 37° C. for 3 minutes. Reaction was initiated by the addition of cofactor cocktail, and the mixture was incubated in a shaking water bath at 37° C. Aliquots (100 μL) were withdrawn at 0, 10, 20, 30, and 60 minutes. Test article samples were immediately combined with 300 μL of ice-cold acetonitrile containing 1% formic acid. Control samples were immediately combined with 400 μL of ice-cold 50/50 acetonitrile (ACN)/dH2O containing 0.1% formic acid and internal standard to terminate the reaction. Samples were then mixed and centrifuged to precipitate proteins. Calibration standards were prepared in matched matrix. Samples and standards were assayed by LC-MS/MS using electrospray ionization for both dosed prodrug and expected drug (PEA). Analytical conditions are outlined in Appendix 13-1. Test article concentration at each time point was compared to test article concentration at time 0 to determine the percent remaining at each time point. Halflives were calculated using GraphPad software, fitting to a single-phase exponential decay equation.

Data set [1] in a line: Plasma stability (37° C., pH 7.4), mouse. The format is in vitro ADME, CD-1 mouse. As to conditions: for half-life at 1 μM: male, CD-1, mouse, plasma, pH 7.4, mouse plasma; for % Remaining of Initial (n = 1), 0 min / % Remaining of Initial (n = 1), 15 min / % Remaining of Initial (n = 1), 30 min / % Remaining of Initial (n = 1), 60 min / % Remaining of Initial (n = 1), 120 min: mouse plasma; for % Remaining of Initial (n = 1), 0 min: pH 7.4, 0 min; for % Remaining of Initial (n = 1), 15 min: pH 7.4, 15 min; for % Remaining of Initial (n = 1), 30 min: pH 7.4, 30 min; for % Remaining of Initial (n = 1), 60 min: pH 7.4, 60 min; for % Remaining of Initial (n = 1), 120 min: pH 7.4, 120 min. As to the method:
(§2) Studies were carried out in mixed-gender human plasma (Lot #GLP530-5), male Sprague-Dawley rat (Lot #RAT297944, RAT313140), male CD-1 mouse (Lot #MSE237700), and male Beagle dog (Lot #BGL87670, BGL82614), collected on sodium heparin. Plasma was adjusted to pH 7.4 prior to initiating the experiments. DMSO stocks were first prepared for the test articles. Aliquots of the DMSO solutions were dosed into 700 μL of plasma, which had been pre-warmed to 37° C., at a final test article concentration of 1 μM. […] Samples were stored at 4° C. until the end of the experiment. After the final time point was sampled, the plate was mixed and then centrifuged at 3,000 rpm for 10 minutes. Calibration standards were prepared in matched matrix. […] Analytical conditions are outlined in Appendix 8-1.
as §2, with “#AS1650-2),” for “#GLP530-5),”, “#RAT297944),” for “#RAT297944, RAT313140),”, “CD-I” for “CD-1”, “#BGL91384),” for “#BGL87670, BGL82614),”, “10-1.” for “8-1.”
Studies were carried out in mixed-gender human plasma (Lot #AS1650-2), male Sprague-Dawley rat (Lot #RAT297944), male CD-1 mouse (Lot #MSE237700), and male Beagle dog (Lot #BGL91384), collected on sodium heparin. Plasma was adjusted to pH 7.4 prior to initiating the experiments. DMSO stocks were first prepared for test articles. […] Samples were stored at 4° C. until the end of experiment. After the final time point was sampled, the plate was mixed and then centrifuged at 3,000 rpm for 10 minutes. Calibration standards were prepared in matched matrix. […] Analytical conditions are outlined in Appendix 13-1.
Studies were carried out in mixed-gender human plasma (Lot #AS 1650-2), male Sprague-Dawley rat (Lot #RAT320835), male CD-1 mouse (Lot #MSE260693), and 6 male Beagle dog (Lot #BGL91384), on sodium heparin. Plasma was adjusted to pH 7.4 prior to initiating the experiments. DMSO stocks were first prepared for the test articles. Aliquots of the DMSO solutions were dosed into 700 μL of plasma, which had been pre-warmed to 37° C., at a final test article concentration of 1 μM. […] Samples were stored at 4° C. until the end of the experiment. After the final time point was sampled, the plate was mixed and then centrifuged at 3,000 rpm for 10 minutes. Calibration standards were prepared in matched matrix. […] Analytical conditions are outlined in Appendix 17-1.

[2] abbreviates: test article 1 μM, 37° C., pH 7.4, read-out: Half-life.
Setting [3] is: control compound, mouse intestinal S9 fraction.

Where only a bound is given, the exact number is not on record here.

The microsomal CLint is the capacity of the preparation to metabolise the compound, expressed as a volume cleared per time. One may read the half-life as how long it takes for the measured level to halve. On to `CCCCCCCCCCCCCCCC(=O)NCCOC(=O)CCC` [Compound I-2], for which, in “in vitro”, the “Concentration (μM) of analyte PEA, 0 min” value is 0.52 µM; the “Concentration (μM) of analyte PEA, 10 min” value (from here on “Concentration (μM) … 10 min”) came out at 0.50 µM; the “Concentration (μM) of analyte PEA, 20 min” value (“Concentration (μM) … 20 min” below) came to 0.52 µM; the “Concentration (μM) of analyte PEA, 30 min” value (shortened to “Concentration (μM) … 30 min”) is 0.45 µM. In the data set “in vitro”, the “Concentration (μM) of analyte PEA, 60 min” value (“Concentration (μM) … 60 min” for short) is 0.45 µM; the “% Remaining of Initial (n = 1), 0 min” value came to 100%; the “% Remaining of Initial (n = 1), 10 min” value is given as less than 1.0%; the “% Remaining of Initial (n = 1), 20 min” value is less than 1.0%. Also, in “in vitro”, the “% Remaining of Initial (n = 1), 30 min” value is given as less than 1.0%; the “% Remaining of Initial (n = 1), 60 min” value is on record as less than 1.0%; the microsomal CLint at 1 μM is more than 691 µL/min/mg. The molecule further displayed a half-life at 1 μM in the data set “in vitro” (s9, Half-life (min)) of less than 0.0167 h. Further, in data set [1] (setting [2]), the half-life at 1 μM was found to be 62 min. In data set [1] (test article 1 μM, 37° C.), the “% Remaining of Initial (n = 1), 0 min” value worked out at 100%; the “% Remaining of Initial (n = 1), 15 min” value is given as 72%; the “% Remaining of Initial (n = 1), 30 min” value is 71%; the “% Remaining of Initial (n = 1), 60 min” value worked out at 56%. In addition, the “% Remaining of Initial (n = 1), 120 min” value in data set [1] (test article 1 μM, 37° C.) is reported as 21%.
On to `CCCCCCCCCCCCCCCC(=O)NCCOC(=O)CCC(=O)OCC(COC(=O)CCCCCCC)OC(=O)CCCCCCC` (centres unmarked) [Compound I-3, PEA-Succinate-Glycerol-Di-Caprylic], for which, in the data set “in vitro”, the “Concentration (μM) of analyte PEA, 0 min” value came out at 0 µM; the “Concentration (μM) … 10 min” value stood at 0.026 µM; the “Concentration (μM) … 20 min” value turned out to be 0.024 µM; the “Concentration (μM) … 30 min” value amounted to 0.026 µM. Also, in “in vitro”, the “Concentration (μM) … 60 min” value is 0.043 µM; the “% Remaining of Initial (n = 1), 0 min” value is 100%; the “% Remaining of Initial (n = 1), 10 min” value is listed as 68%; the “% Remaining of Initial (n = 1), 20 min” value was determined as 59%. Also, in the data set “in vitro”, the “% Remaining of Initial (n = 1), 30 min” value turned out to be 49%; the “% Remaining of Initial (n = 1), 60 min” value amounted to 33%; the microsomal CLint at 1 μM was 21.1 µL/min/mg. In the data set “in vitro” (s9, Half-life (min)), this molecule showed a half-life at 1 μM of 0.55 h. Besides, the half-life at 1 μM in data set [1] (setting [2]) is 9.4 min. In addition, in data set [1] (test article 1 μM, 37° C.), the “% Remaining of Initial (n = 1), 0 min” value was 100%; the “% Remaining of Initial (n = 1), 15 min” value came to 23%; the “% Remaining of Initial (n = 1), 30 min” value is 24%; the “% Remaining of Initial (n = 1), 60 min” value is listed as 9.1%. Besides, in data set [1] (test article 1 μM, 37° C.), the “% Remaining of Initial (n = 1), 120 min” value was determined as 4.7%.
Consider `CC/C=C\C/C=C\C/C=C\C/C=C\C/C=C\CCCC(=O)OCCNC(=O)CCCCCCCCCCCCCCC` [Compound I-5], for which, in the data set “in vitro”, the “Concentration (μM) of analyte PEA, 0 min” value was found to be 0.050 µM; the “Concentration (μM) … 10 min” value came out at 0.11 µM; the “Concentration (μM) … 20 min” value came out at 0.076 µM; the “Concentration (μM) … 30 min” value was 0.093 µM. In the data set “in vitro”, the “Concentration (μM) … 60 min” value worked out at 0.14 µM; the “% Remaining of Initial (n = 1), 0 min” value was 100%; the “% Remaining of Initial (n = 1), 10 min” value is recorded as 68%; the “% Remaining of Initial (n = 1), 20 min” value is 67%. In the data set “in vitro”, the “% Remaining of Initial (n = 1), 30 min” value is reported as 66% and the “% Remaining of Initial (n = 1), 60 min” value worked out at 49%. Further, the half-life at 1 μM in data set [1] (setting [2]) was more than 120 min. In addition, the half-life at 1 μM in data set [1] (calculated value beyond duration of experiment, read-out: Half-life (min), calculated half-life in parentheses) was 213 min. In data set [1] (test article 1 μM, 37° C.), the “% Remaining of Initial (n = 1), 0 min” value is listed as 100%; the “% Remaining of Initial (n = 1), 15 min” value is listed as 109%; the “% Remaining of Initial (n = 1), 30 min” value is reported as 86%; the “% Remaining of Initial (n = 1), 60 min” value is 73%. Moreover, the “% Remaining of Initial (n = 1), 120 min” value in data set [1] (test article 1 μM, 37° C.) came out at 75%.
Molecule `C[C@]12CC[C@H]3[C@@H](CCC4=CC(=O)CC[C@@]43C)[C@@H]1CC[C@@H]2O` [Testosterone, testosterone, reference compound] came in with a CLin in the data set “in vitro” (setting [3]) of less than 0.0116 ml/min/mg protein. In addition, the “CLin, calculated value in parentheses” value in the data set “in vitro” (setting [3]) is 0.00767 ml/min/mg protein. The intrinsic metabolic clearance (microsomal CLint) in the data set “in vitro” (s9, CLint (ml/min/mg protein), calculated value in parentheses, control compound, mouse intestinal S9 fraction, calculated value beyond duration of experiment) was 9.19 µL/min/mg; in the data set “in vitro” (s9, CLint (ml/min/mg protein), control compound, mouse intestinal S9 fraction) it was less than 11.6 µL/min/mg; in “in vitro” (s9, CLint, Control Compound, Mouse intestinal S9 fraction) it was less than 11.6 µL/min/mg; in “in vitro” (s9, CLint, Mouse intestinal S9 fraction, control compound) it was less than 11.6 µL/min/mg. For the same molecule, the half-life in the data set “in vitro” (s9, Half-life (min), calculated value in parentheses, control compound, mouse intestinal S9 fraction, calculated value beyond duration of experiment) is 1.25 h; in “in vitro” (s9, Half-life (min), control compound, mouse intestinal S9 fraction), more than 1 h; in the data set “in vitro” (s9, Half-life, Control Compound, Mouse intestinal S9 fraction), more than 1 h; in the data set “in vitro” (s9, Half-life, calculated value in parentheses, control compound, mouse intestinal S9 fraction), 1.5 h; in “in vitro” (s9, Half-life, control compound, mouse intestinal S9 fraction) it was more than 1 h. The half-life at 1 μM in the data set “in vitro” (s9, Half-life, Mouse intestinal S9 fraction) is more than 1 h.
